We go through ten molecules from ChEMBL document CHEMBL1201862, “PubChem BioAssay data set” (2004).

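1) Cells in 96-well plates. 2) Compound, 48 h, 5 concentrations. 3) Linear interpolation between surrounding doses. 4) Unreached endpoint = highest concentration. Here, GI50 denotes the concentration required for 50% inhibition of growth.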 The source made the active and inactive calls. Rule as the data show it: active = GI50 up to about 1.1 µM and inactive = higher. Some results are limits rather than exact numbers.

Some test systems named below: HOP-92; UACC-62; NCI-H226; SF-539; SF-268; M14; HT-29; NCI-H522; A549; SF-295; HL-60; HCT-15; K562; PC-3; MDA-MB-231; SK-MEL-28; CCRF-CEM; IGROV-1; SN12C; SW-620.
What all share (test): NCI tumour cell line growth inhibition, 48 h

With `C#CC1(O)C(COP(=O)(O)OCC2OC(n3ccc(NCCCCCCCCCCCCCCCCCC)nc3=O)C(O)C2O)OC(n2ccc(N)nc2=O)C1O` (stereo unspecified), the GI50 in the assay on HOP-92 was 21.2 µM (inactive); in the assay with UACC-62, 0.614 µM (active); in the assay with NCI-H226, 0.757 µM (active); in the assay with SF-539, 1.16 µM (inactive); in the assay on SF-268, 1.34 µM (inactive); with M14, 0.254 µM (active). Moreover, the GI50 was 0.518 µM (active) with HT-29; 0.032 µM (active) in the assay on NCI-H522; 0.0525 µM (active) with A549; 0.349 µM (active) in the assay on SF-295; 0.298 µM (active) with HL-60; 0.353 µM with HCT-15. Also, the GI50 in the assay with K562 is 0.278 µM (active); in the assay with PC-3, 1.8 µM (inactive); in the assay on MDA-MB-231, 1.03 µM (active); in the assay on SK-MEL-28 it was 1.78 µM (inactive); with CCRF-CEM, 0.929 µM (active); in the assay with IGROV-1, 0.218 µM (active). The GI50 was 0.488 µM (active) in the assay with SN12C and 0.228 µM (active) in the assay with SW-620.

With `C1=N\CCN2CCN(CC/N=C\c3ccc(cc3)OCc3cccc(n3)COc3ccc/1cc3)CC2`, the GI50 with HOP-92 is 40.4 µM (inactive); in the assay with UACC-62, > 50 µM (inactive); with NCI-H226 it was > 50 µM (inactive); in the assay with SF-539, > 50 µM (inactive); with SF-268, > 50 µM (inactive); in the assay with M14 it was > 50 µM (inactive). Besides, the GI50 in the assay with HT-29 is > 50 µM (inactive); in the assay on NCI-H522, > 50 µM (inactive); in the assay with A549 it was > 50 µM (inactive); in the assay with SF-295, 46.2 µM (inactive); in the assay on HL-60, > 50 µM (inactive); in the assay on HCT-15, above 50 µM. The GI50 in the assay with K562, in the assay with PC-3, in the assay with MDA-MB-231, in the assay on SK-MEL-28, in the assay with CCRF-CEM and in the assay with IGROV-1 was > 50 µM (inactive) in each case. Further, the GI50 in the assay on SN12C and with SW-620 was > 50 µM (inactive) throughout.

Turning to `COc1cc(OC(=O)c2ccccc2)cc2c1C(=O)C=CC2=O`, the GI50 in the assay with HOP-92 was 2.16 µM (inactive); with UACC-62, 13.8 µM (inactive); in the assay with NCI-H226, 28.4 µM (inactive); with SF-539 it was 20.1 µM (inactive); in the assay on SF-268 it was 16.8 µM (inactive); in the assay on M14, 14.4 µM (inactive). Moreover, the GI50 in the assay on HT-29 was 14.1 µM (inactive); in the assay with NCI-H522, 5.31 µM (inactive); in the assay on A549, 36.2 µM (inactive); in the assay on SF-295, 17.3 µM (inactive); with HL-60, 0.556 µM (active); in the assay on HCT-15 it was 11.9 µM. Further, the GI50 was 1.88 µM (inactive) in the assay on K562; 14 µM (inactive) in the assay on PC-3; 2.29 µM (inactive) with MDA-MB-231; 18.2 µM (inactive) in the assay on SK-MEL-28; 0.543 µM (active) with CCRF-CEM; 15.1 µM (inactive) with IGROV-1. Also, the GI50 is 19.5 µM (inactive) in the assay with SN12C and 8.79 µM (inactive) in the assay on SW-620.

Consider `CC(=O)O[C@H]1CCc2c(cc(N)c3c2C(=O)C[C@]2(C)C([C@H](C)CCCC(C)C)CCC32C)C1(C)C` (stereo partly specified), for which the GI50 in the assay with HOP-92 was > 100 µM (inactive); in the assay with UACC-62, > 100 µM (inactive); with NCI-H226, > 100 µM (inactive); with SF-539, 71.9 µM (inactive); in the assay with SF-268, > 100 µM (inactive); in the assay with M14 it was > 100 µM (inactive). Also, the GI50 in the assay on HT-29 was 42.2 µM (inactive); in the assay on NCI-H522 it was > 100 µM (inactive); in the assay on A549 it was > 100 µM (inactive); with SF-295, > 100 µM (inactive); with HL-60 it was 66.5 µM (inactive); in the assay with HCT-15, above 100 µM. The GI50 is 33.7 µM (inactive) with K562; 72.8 µM (inactive) with PC-3; > 100 µM (inactive) in the assay on MDA-MB-231; > 100 µM (inactive) with SK-MEL-28; > 100 µM (inactive) in the assay with CCRF-CEM; > 100 µM (inactive) in the assay with IGROV-1. Also, the GI50 in the assay on SN12C and with SW-620 was > 100 µM (inactive) each time.

As for `C[C@@H]1C[C@H](O)[C@]2(O)O[C@@H]3C[C@@]4(C=O)[C@@H](CC=C5[C@@H]4CC[C@]4(C)[C@@H](C6=CC(=O)OC6)CC[C@]54O)C[C@H]3O[C@@H]2O1`, the GI50 is 0.0277 µM (active) with HOP-92; 0.0449 µM (active) in the assay on UACC-62; < 0.0191 µM (active) with NCI-H226; < 0.0166 µM (active) in the assay with SF-539; 0.0103 µM (active) with SF-268; 0.0574 µM (active) in the assay on M14. Moreover, the GI50 was < 0.0212 µM (active) in the assay on HT-29; < 0.01 µM (active) with NCI-H522; < 0.0109 µM (active) with A549; < 0.0191 µM (active) with SF-295; 0.0171 µM (active) in the assay with HL-60; 0.0175 µM in the assay on HCT-15. Also, the GI50 with K562 is < 0.0231 µM (active); with PC-3, 0.02 µM (active); in the assay on MDA-MB-231, 0.144 µM (active); in the assay on SK-MEL-28, 0.128 µM (active); with CCRF-CEM it was < 0.01 µM (active); with IGROV-1, < 0.0118 µM (active). Besides, the results for the GI50 in the assay on SN12C and with SW-620 were < 0.01 µM (active) and < 0.0227 µM (active), respectively.

As to `O=[N+]([O-])c1ccc2c(c1)nc(Cc1ccc(Cl)cc1)n2C[C@@H]1CCCN2CCCCC12` (stereo partly specified), the GI50 in the assay with HOP-92 is 6.47 µM (inactive); with UACC-62, 15.2 µM (inactive); with NCI-H226 it was 16.6 µM (inactive); in the assay on SF-539, 18.4 µM (inactive); with M14, 9.79 µM (inactive); in the assay on HT-29, 8.59 µM (inactive). In addition, the GI50 in the assay on NCI-H522 was 12.3 µM (inactive); in the assay with A549 it was 19.2 µM (inactive); in the assay with SF-295, 15.3 µM (inactive); in the assay with HL-60 it was 28.9 µM (inactive); in the assay with HCT-15 it was 16 µM; in the assay on K562, 15 µM (inactive). The GI50 is 20.2 µM (inactive) in the assay with PC-3; 16.5 µM (inactive) in the assay on MDA-MB-231; 14.6 µM (inactive) in the assay on SK-MEL-28; 11.8 µM (inactive) in the assay on CCRF-CEM; 9.84 µM (inactive) with IGROV-1; 13.6 µM (inactive) in the assay with SN12C. Also, the GI50 with SW-620 was 20.8 µM (inactive).

On to `CN(C)c1ccc2c(c1)oc(=O)c1ccccc12`, for which the GI50 in the assay with HOP-92 was 12.3 µM (inactive); in the assay on UACC-62, 13.6 µM (inactive); in the assay on NCI-H226, 15.3 µM (inactive); in the assay on SF-539, 14 µM (inactive); in the assay on SF-268 it was 10.4 µM (inactive); in the assay on M14, 13 µM (inactive). Besides, the GI50 is 10.4 µM (inactive) in the assay on HT-29; 8.36 µM (inactive) in the assay with NCI-H522; 14.7 µM (inactive) in the assay with A549; 19.1 µM (inactive) in the assay on SF-295; 3.69 µM (inactive) in the assay with HL-60; 12.6 µM in the assay with HCT-15. Further, the GI50 was 4.52 µM (inactive) in the assay with K562; 15.7 µM (inactive) in the assay on PC-3; 16.5 µM (inactive) with MDA-MB-231; 17.5 µM (inactive) in the assay on SK-MEL-28; 4.24 µM (inactive) with CCRF-CEM; 13.7 µM (inactive) with IGROV-1. The GI50 in the assay with SN12C was 12.8 µM (inactive); in the assay with SW-620 it was 11.4 µM (inactive).

Take `O=c1[nH]nc(Cc2ccc(Cl)cc2)n1/N=C/c1ccco1`: the GI50 in the assay with HOP-92 was 93.8 µM (inactive); in the assay with UACC-62, 74 µM (inactive); with NCI-H226, 84.5 µM (inactive); in the assay on SF-539, 27.4 µM (inactive); in the assay with SF-268 it was 38.3 µM (inactive); with M14, > 100 µM (inactive). The GI50 with HT-29 was 33.1 µM (inactive); in the assay with NCI-H522, 58.9 µM (inactive); in the assay with A549, > 100 µM (inactive); in the assay with SF-295, 46.6 µM (inactive); in the assay with HL-60, > 100 µM (inactive); with HCT-15, above 100 µM. Moreover, the GI50 in the assay on K562 is > 100 µM (inactive); with PC-3, > 100 µM (inactive); in the assay with MDA-MB-231, 46.1 µM (inactive); in the assay with SK-MEL-28, > 100 µM (inactive); with CCRF-CEM, > 100 µM (inactive); with SN12C, > 100 µM (inactive). Moreover, the GI50 in the assay with SW-620 is > 100 µM (inactive).

On to `COCn1c2ccc(OC(C)=O)cc2c2c(=O)oc(N(C)C)nc21`, for which the GI50 in the assay with HOP-92, with UACC-62, in the assay on NCI-H226, in the assay with SF-539, in the assay on M14 and in the assay with HT-29 was > 100 µM (inactive) in each case. Further, the GI50 in the assay with NCI-H522 is > 100 µM (inactive); with A549, > 100 µM (inactive); with SF-295, > 100 µM (inactive); in the assay with HL-60 it was > 100 µM (inactive); in the assay with HCT-15, above 100 µM; in the assay with K562, > 100 µM (inactive). The GI50 in the assay on PC-3, in the assay with MDA-MB-231, in the assay on SK-MEL-28, in the assay with CCRF-CEM, with IGROV-1 and in the assay with SN12C was > 100 µM (inactive) each time. Besides, in the assay with SW-620, the GI50 is > 100 µM (inactive).

With `CCC1=[N+](CC)CCN1CC`, the GI50 with HOP-92, in the assay on NCI-H226, with SF-539, with SF-268, in the assay on M14 and in the assay on HT-29 was > 100 µM (inactive) throughout. The GI50 in the assay with NCI-H522 is > 100 µM (inactive); in the assay on A549, > 100 µM (inactive); in the assay with SF-295, > 100 µM (inactive); with HL-60, > 100 µM (inactive); with HCT-15 it was above 100 µM; with K562 it was > 100 µM (inactive). The GI50 in the assay on PC-3, with MDA-MB-231, in the assay on SK-MEL-28, in the assay on CCRF-CEM, in the assay on IGROV-1 and with SN12C was > 100 µM (inactive) in each case. The GI50 in the assay on SW-620 was > 100 µM (inactive).
